Results from patent US11596639B2, “Substituted indole Mcl-1 inhibitors” (Vanderbilt University, priority 2016, dated 2023).
Where two headings read alike, the source gives them in different places.

Key:
Mcl-1 = Mcl-1 (Homo sapiens (Human), UniProt Q07820); assay: Fluorescence polarization anisotropy (FPA) competition assay, FITC-Bak or FITC-Bim BH3 peptide; format: binding; conditions: read-out: Ki for Inhibition of Mcl-1 by FPA assay
[1] = test system: H929 human cancer cell lines; assay: Cellular viability / proliferation (Cell TiterGlo, 72 h); format: cell-based
Outline: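 Cells were seeded at 1,000 cells/well in medium with 10% FBS and dosed 24 h later with a 2-fold serial dilution of compound (top concentration 50 μM, final DMSO <1%).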

[2] = Homo sapiens, NCI-H929, 72 h, read-out: GI50 on cellular proliferation of H929 human cancer cell lines, H929 cells, 72 h, Cell TiterGlo, 10% FBS

Chain of Mcl-1 (Q07820 172-327): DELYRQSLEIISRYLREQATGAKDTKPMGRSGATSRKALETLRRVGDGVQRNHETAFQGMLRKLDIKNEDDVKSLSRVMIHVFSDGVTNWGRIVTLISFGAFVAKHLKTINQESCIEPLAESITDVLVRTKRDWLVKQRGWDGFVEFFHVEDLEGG

Structure (SMILES)	Ki (Mcl-1) [nM]	GI50 [1, 2] [nM]	GI50 ([1]; H929 cells, 72 h, Cell TiterGlo, 10% FBS, read-out: GI50 on cellular proliferation of H929 human cancer cell lines) [nM]
Cc1cc(OCCCc2c3n(c4c(-c5c(C)nn(C)c5C)c(Cl)ccc24)[C@H](C)CN(c2ccnc4ccc(-c5nnn(C)n5)cc24)C3=O)cc(C)c1Cl [Example 425, (R)-7-Chloro-10-(3-(4-chloro-3,5-dimethylphenoxy)propyl)-4-methyl-2-(6-(2-methyl-2H-tetrazol-5-yl)quinolin-4-yl)-6-(1,3,5-trimethyl-1H-pyrazol-4-yl)-3,4-dihydropyrazino[1,2-a]indol-1(2H)-one]	1.8	1400	
Cc1cc(OCCCc2c3n(c4c(-c5c(C)nn(C)c5C)c(Cl)ccc24)[C@H](C)CN(c2cn(C)c4cc(S(C)(=O)=O)ccc24)C3=O)cc(C)c1Cl [Example 222, (R)-7-chloro-10-(3-(4-chloro-3,5-dimethylphenoxy)propyl)-4-methyl-2-(1-methyl-6-(methylsulfonyl)-1H-indol-3-yl)-6-(1,3,5-trimethyl-1H-pyrazol-4-yl)-3,4-dihydropyrazino[1,2-a]indol-1(2H)-one]	6.9	3000	
Cc1cc(OCCCc2c3n(c4c(-c5c(C)nn(C)c5C)c(Cl)ccc24)[C@H](C)CN(c2cc(C(=O)O)cc4[nH]ccc24)C3=O)cc(C)c1Cl [Example 100, (R)-4-(7-chloro-10-(3-(4-chloro-3,5-dimethylphenoxy)propyl)-4-methyl-1-oxo-6-(1,3,5-trimethyl-1H-pyrazol-4-yl)-3,4-dihydropyrazino[1,2-a]indol-2(1H)-yl)-1H-indole-6-carboxylic acid]	< 1	5800	
Cc1cc(OCCCc2c3n(c4c(-c5c(C)ncnc5C)c(Cl)ccc24)[C@H](C)CN(c2cn(C)c4ccc(C(N)=O)cc24)C3=O)cc(C)c1Cl [Example 269, 3-[(4R)-7-chloro-10-[3-(4-chloro-3,5-dimethyl-phenoxy)propyl]-6-(4,6-dimethylpyrimidin-5-yl)-4-methyl-1-oxo-3,4-dihydropyrazino[1,2-a]indol-2-yl]-1-methyl-indole-5-carboxamide]	7.4	760	
Cc1cc(OCCCc2c3n(c4c(-c5c(C)nn(C)c5C)c(Cl)ccc24)[C@H](C)CN(c2cc(C(=O)O)cc4c2ccn4CCN2CCOCC2)C3=O)cc(C)c1Cl [Example 96, (R)-4-(7-chloro-10-(3-(4-chloro-3,5-dimethylphenoxy)propyl)-4-methyl-1-oxo-6-(1,3,5-trimethyl-1H-pyrazol-4-yl)-3,4-dihydropyrazino[1,2-a]indol-2(1H)-yl)-1-(2-morpholinoethyl)-1H-indole-6-carboxylic acid]	2.9	4700	
Cc1cc(OCCCc2c3n(c4c(-c5c(C)nn(C)c5C)c(Cl)ccc24)[C@H](C)CN(c2ccc(C(=O)O)c4c2ccn4C)C3=O)cc(C)c1Cl [Example 51, (R)-4-(7-chloro-10-(3-(4-chloro-3,5-dimethylphenoxy)propyl)-4-methyl-1-oxo-6-(1,3,5-trimethyl-1H-pyrazol-4-yl)-3,4-dihydropyrazino[1,2-a]indol-2(1H)-yl)-1-methyl-1H-indole-7-carboxylic acid]	< 1	1500	
Cc1cc(OCCCc2c3n(c4c(-c5c(C)nn(C)c5C)c(Cl)ccc24)[C@H](C)CN(c2cn(C)c4ccc(-c5cnn(C)c5)cc24)C3=O)cc(C)c1Cl [Example 391, (R)-7-Chloro-10-(3-(4-chloro-3,5-dimethylphenoxy)propyl)-4-methyl-2-(1-methyl-5-(1-methyl-1H-pyrazol-4-yl)-1H-indol-3-yl)-6-(1,3,5-trimethyl-1H-pyrazol-4-yl)-3,4-dihydropyrazino[1,2-a]indol-1(2H)-one]	2.1	370	
Cc1cc(OCCCc2c3n(c4c(-c5c(C)nn(C)c5C)c(Cl)ccc24)[C@H](C)CN(c2cc4c(C(=O)O)cccc4n2C)C3=O)cc(C)c1Cl [Example 170, 2-[(4R)-7-chloro-10-[3-(4-chloro-3,5-dimethyl-phenoxy)propyl]-4-methyl-1-oxo-6-(1,3,5-trimethylpyrazol-4-yl)-3,4-dihydropyrazino[1,2-a]indol-2-yl]-1-methyl-indole-4-carboxylic acid]	2.7	2600	
Cc1cc(OCCCc2c3n(c4c(-c5c(C)nn(CCN6CCCC6)c5C)c(Cl)ccc24)[C@H](C)CN(c2cn(C)c4ccc(C(=O)O)cc24)C3=O)cc(C)c1Cl [Example 263, (R)-3-(7-chloro-10-(3-(4-chloro-3,5-dimethylphenoxy)propyl)-6-(3,5-dimethyl-1-(2-(pyrrolidin-1-yl)ethyl)-1H-pyrazol-4-yl)-4-methyl-1-oxo-3,4-dihydropyrazino[1,2-a]indol-2(1H)-yl)-1-methyl-1H-indole-5-carboxylic acid]	1.8	270	
Cc1cc(OCCCc2c3n(c4c(-c5c(C)nn(C)c5C)c(Cl)ccc24)[C@H](C)CN(c2cccc4c(C(=O)O)c(C)n(C)c24)C3=O)cc(C)c1Cl [Example 417, (R)-7-(7-Chloro-10-(3-(4-chloro-3,5-dimethylphenoxy)propyl)-4-methyl-1-oxo-6-(1,3,5-trimethyl-1H-pyrazol-4-yl)-3,4-dihydropyrazino[1,2-a]indol-2(1H)-yl)-1,2-dimethyl-1H-indole-3-carboxylic acid]	1.3	340	
Cc1cc(OCCCc2c3n(c4c(-c5c(C)nn(C)c5C)c(Cl)ccc24)[C@H](C)CN(c2cc(C(=O)O)cc4c2OCCO4)C3=O)cc(C)c1Cl [Example 26, (R)-8-(7-chloro-10-(3-(4-chloro-3,5-dimethylphenoxy)propyl)-4-methyl-1-oxo-6-(1,3,5-trimethyl-1H-pyrazol-4-yl)-3,4-dihydropyrazino[1,2-a]indol-2(1H)-yl)-2,3-dihydrobenzo[b][1,4]dioxine-6-carboxylic acid]	1.3	830	
Cc1cc(OCCCc2c3n(c4c(-c5c(C)ncnc5C)c(Cl)ccc24)CCCN(c2cc(C(=O)O)c4cnn(C)c4c2)C3=O)cc(C)c1Cl [Example 155, 6-[8-Chloro-11-[3-(4-chloro-3,5-dimethyl-phenoxy)propyl]-7-(4,6-dimethylpyrimidin-5-yl)-1-oxo-4,5-dihydro-3H-[1,4]diazepino[1,2-a]indol-2-yl]-1-methyl-indazole-4-carboxylic acid]	< 1	1400	
Cc1cc(OCCCc2c3n(c4c(-c5c(C)nn(C)c5C)c(Cl)ccc24)CCCN(c2cccc4c(-c5nn[nH]n5)cn(C)c24)C3=O)cc(C)c1Cl [Example 15, 8-Chloro-11-[3-(4-chloro-3,5-dimethyl-phenoxy)propyl]-2-[1-methyl-3-(2H-tetrazol-5-yl)indol-7-yl]-7-(1,3,5-trimethylpyrazol-4-yl)-4,5-dihydro-3H-[1,4]diazepino[1,2-a]indol-1-one]	2.2	11000	
Cc1cc(OCCCc2c3n(c4c(-c5c(C)nn(C)c5C)c(Cl)ccc24)[C@H](C)CN(c2cccc4c2cc(C(=O)O)n4C(C)C)C3=O)cc(C)c1Cl [Example 197, (R)-4-(7-Chloro-10-(3-(4-chloro-3,5-dimethylphenoxy)propyl)-4-methyl-1-oxo-6-(1,3,5-trimethyl-1H-pyrazol-4-yl)-3,4-dihydropyrazino[1,2-a]indol-2(1H)-yl)-1-isopropyl-1H-indole-2-carboxylic acid]	< 1	670	
CC[C@@H]1Cn2c(c(CCCOc3cc(C)c(Cl)c(C)c3)c3ccc(Cl)c(-c4c(C)nn(C)c4C)c32)C(=O)N1c1ccc(C(=O)O)cc1 [Example 23, (R)-4-(7-chloro-10-(3-(4-chloro-3,5-dimethylphenoxy)propyl)-3-ethyl-1-oxo-6-(1,3,5-trimethyl-1H-pyrazol-4-yl)-3,4-dihydropyrazino[1,2-a]indol-2(1H)-yl)benzoic acid]	< 1	4900	
Cc1cc(OCCCc2c3n(c4c(-c5c(C)nn(C)c5C)c(Cl)ccc24)[C@H](C)CN(c2cc(C(C)C)cc4cc(C(N)=O)n(C)c24)C3=O)cc(C)c1Cl [Example 422, (R)-7-(7-Chloro-10-(3-(4-chloro-3,5-dimethylphenoxy)propyl)-4-methyl-1-oxo-6-(1,3,5-trimethyl-1H-pyrazol-4-yl)-3,4-dihydropyrazino[1,2-a]indol-2(1H)-yl)-5-isopropyl-1-methyl-1H-indole-2-carboxamide]	< 1	830	
Cc1cc(OCCCc2c3n(c4c(-c5c(C)nn(C)c5C)c(Cl)ccc24)[C@H](C)CN(c2cc(OCc4ccccc4)cc4cc(C(=O)O)n(C)c24)C3=O)cc(C)c1Cl [Example 345, (P, R)-5-(Benzyloxy)-7-(7-chloro-10-(3-(4-chloro-3,5-dimethylphenoxy)propyl)-4-methyl-1-oxo-6-(1,3,5-trimethyl-1H-pyrazol-4-yl)-3,4-dihydropyrazino[1,2-a]indol-2(1H)-yl)-1-methyl-1H-indole-2-carboxylic acid]	3.5		1800
Cc1cc(OCCCc2c3n(c4c(-c5c(C)ncnc5C)c(Cl)ccc24)CCCN(c2cc(C(=O)O)cc4c2OCCO4)C3=O)cc(C)c1Cl [Example 154, 5-[8-Chloro-11-[3-(4-chloro-3,5-dimethyl-phenoxy)propyl]-7-(4,6-dimethylpyrimidin-5-yl)-1-oxo-4,5-dihydro-3H-[1,4]diazepino[1,2-a]indol-2-yl]-2,3-dihydro-1,4-benzodioxine-7-carboxylic acid]	< 1	1300	
Cc1nnc(-c2ccc3c(c2)c(N2C[C@@H](C)n4c(c(CCCOc5cc(C)c(Cl)c(C)c5)c5ccc(Cl)c(-c6c(C)nn(C)c6C)c54)C2=O)cn3C)o1 [Example 337, (R)-7-Chloro-10-(3-(4-chloro-3,5-dimethylphenoxy)propyl)-4-methyl-2-(1-methyl-5-(5-methyl-1,3,4-oxadiazol-2-yl)-1H-indol-3-yl)-6-(1,3,5-trimethyl-1H-pyrazol-4-yl)-3,4-dihydropyrazino[1,2-a]indol-1(2H)-one]	2.6	540	
